Structures are written as SMILES.

The target in the experiment is Protein cereblon/Wee1-like protein kinase (Homo sapiens) (UniProt P30291+Q96SW2). The experiment in a line: Protac activity at CRBN/WEE1 in human MOLT4 cells assessed as induction of degradation of WEE1 at 1 uM incubated for 6 hrs by immunoblot analysis relative to control. The experiment is classed as cell-based. The following applies: MOLT-4.
Sequence of Protein cereblon/Wee1-like protein kinase (Homo sapiens) (P30291 whole entry, looked up): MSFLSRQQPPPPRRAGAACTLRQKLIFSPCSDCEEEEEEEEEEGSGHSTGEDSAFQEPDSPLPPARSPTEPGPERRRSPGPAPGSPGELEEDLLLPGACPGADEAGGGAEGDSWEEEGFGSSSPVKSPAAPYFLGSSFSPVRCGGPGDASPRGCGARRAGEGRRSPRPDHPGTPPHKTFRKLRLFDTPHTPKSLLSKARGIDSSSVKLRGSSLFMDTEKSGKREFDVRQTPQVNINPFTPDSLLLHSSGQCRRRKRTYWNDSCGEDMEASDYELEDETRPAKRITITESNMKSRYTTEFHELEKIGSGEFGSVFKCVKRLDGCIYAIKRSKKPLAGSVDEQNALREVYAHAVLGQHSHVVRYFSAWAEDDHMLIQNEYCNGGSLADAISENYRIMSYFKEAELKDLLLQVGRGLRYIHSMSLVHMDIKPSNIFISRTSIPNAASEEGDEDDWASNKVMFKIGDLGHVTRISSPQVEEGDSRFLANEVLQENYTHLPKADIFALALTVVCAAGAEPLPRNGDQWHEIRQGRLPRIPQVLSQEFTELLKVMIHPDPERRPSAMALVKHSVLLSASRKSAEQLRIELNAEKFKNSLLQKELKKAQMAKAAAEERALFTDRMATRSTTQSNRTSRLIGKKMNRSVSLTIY
Sequence of Protein cereblon/Wee1-like protein kinase (Homo sapiens) (Q96SW2 whole entry, looked up): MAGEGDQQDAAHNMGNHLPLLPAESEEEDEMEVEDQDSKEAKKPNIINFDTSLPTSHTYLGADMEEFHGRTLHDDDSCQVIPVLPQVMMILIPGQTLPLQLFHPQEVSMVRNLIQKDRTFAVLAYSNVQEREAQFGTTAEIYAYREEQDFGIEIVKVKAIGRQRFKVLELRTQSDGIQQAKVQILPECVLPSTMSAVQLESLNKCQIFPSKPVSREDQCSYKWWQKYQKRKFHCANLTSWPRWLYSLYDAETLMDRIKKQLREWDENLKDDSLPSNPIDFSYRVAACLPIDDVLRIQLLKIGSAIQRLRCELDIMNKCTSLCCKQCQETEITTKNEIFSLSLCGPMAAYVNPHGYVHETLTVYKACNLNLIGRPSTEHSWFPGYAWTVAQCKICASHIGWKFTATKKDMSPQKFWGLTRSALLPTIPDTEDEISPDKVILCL
With `C=CCn1c(=O)c2cnc(Nc3ccc(N4CCN(C(=O)CCOCCOCCOCCN5CCN(Cc6ccc(COc7cccc8c7CN([C@H]7CCC(=O)NC7=O)C8=O)cc6)CC5)CC4)cc3)nc2n1-c1cccc(C(C)(C)O)n1`, the Activity is over 50%.

On to `C=CCn1c(=O)c2cnc(Nc3ccc(N4CCN(CCCNc5cccc6c5C(=O)N(C5CCC(=O)NC5=O)C6=O)CC4)cc3)nc2n1-c1cccc(C(C)(C)O)n1` (stereo not given), for which the Activity was over 50%.

Regarding `C=CCn1c(=O)c2cnc(Nc3ccc(N4CCN(C(=O)CCOCCOCCNc5cccc6c5C(=O)N(C5CCC(=O)NC5=O)C6=O)CC4)cc3)nc2n1-c1cccc(C(C)(C)O)n1` (stereo not given), the Activity was over 50%.

`C=CCn1c(=O)c2cnc(Nc3ccc(N4CCN(CCCNc5cccc6c5C(=O)N(C5CCC(=O)NC5=O)C6=O)CC4)cc3)nc2n1-c1cccc(C(F)(F)F)n1` (stereo not given): the Activity was over 50%.

On to `C=CCn1c(=O)c2cnc(Nc3ccc(N4CCN(CCCNc5cccc6c5C(=O)N(C5CCC(=O)NC5=O)C6=O)CC4)cc3)nc2n1-c1cccc(OC)n1` (stereo not given), for which the Activity is over 50%.

With `C=CCn1c(=O)c2cnc(Nc3ccc(N4CCN(C(=O)CCOCCOCCNc5cccc6c5C(=O)N(C5CCC(=O)NC5=O)C6)CC4)cc3)nc2n1-c1cccc(C(C)(C)O)n1` (stereo not given), the Activity lay in the range of 25 to 50%.

Regarding `C=CCn1c(=O)c2cnc(Nc3ccc(N4CCN(CCCNC(=O)CCOCCOCCOCCOCCNc5cccc6c5C(=O)N(C5CCC(=O)NC5=O)C6=O)CC4)cc3)nc2n1-c1cccc(C(C)(C)O)n1` (stereo not given), the Activity was over 50%.

Take `C=CCn1c(=O)c2cnc(Nc3ccc(N(C)CCCCNc4cccc5c4C(=O)N(C4CCC(=O)NC4=O)C5=O)cc3)nc2n1-c1cccc(C(C)(C)O)n1` (stereo not given): the Activity was over 50%.

Take `C=CCn1c(=O)c2cnc(Nc3ccc(N4CCN(CCCNC(=O)CCOCCOCCNc5cccc6c5C(=O)N(C5CCC(=O)NC5=O)C6=O)CC4)cc3)nc2n1-c1cccc(C(C)(C)O)n1` (stereo not given): the Activity is over 50%.

As to `C=CCn1c(=O)c2cnc(Nc3ccc(N4CCN(C(=O)CCOCCNc5cccc6c5C(=O)N(C5CCC(=O)NC5=O)C6=O)CC4)cc3)nc2n1-c1cccc(C(C)(C)O)n1` (stereo not given), the Activity was over 50%.

(Values after ChEMBL document CHEMBL4619809, “Chemically Induced Degradation of WEE1 Kinase for Difficult to Treat Diseases” (ACS Med Chem Lett, 2020).)
